From ChEMBL document CHEMBL1145828, “Development of natural product-derived receptor tyrosine kinase inhibitors based on conservation of protein domain fold” (J Med Chem, 2003) come the findings set out here.

The source made the active and inactive calls. The rule behind the calls is not given here.

Test [1] deals with T1, Epidermal growth factor receptor (Homo sapiens, UniProt P00533). The test can be described thus: Inhibition of Epidermal growth factor receptor (No effect).
Test [2] has as its target T2, Insulin-like growth factor 1 receptor (Homo sapiens, UniProt P08069). As to the kind of experiment: Inhibition of Insulin-like growth factor I receptor (No effect).
The target of test [3] is T3, Vascular endothelial growth factor receptor 2 (Homo sapiens, UniProt P35968). The test can be described thus: Inhibition of Vascular endothelial growth factor receptor 2 (No effect).
Test [4] has as its target T4, Angiopoietin-1 receptor (Homo sapiens, UniProt Q02763). The test can be described thus: Inhibition of Tyrosine protein kinase receptor TIE-2.
In test [5] the target is T5, Receptor tyrosine-protein kinase erbB-2 (Homo sapiens, UniProt P04626). The test can be described thus: Inhibition of ERBB2 receptor kinase (No effect).
Test [6] concerns the target T6, Vascular endothelial growth factor receptor 3 (Homo sapiens, UniProt P35916). The test can be described thus: Inhibition of Vascular endothelial growth factor receptor 3 (No effect).
For test [7], the target named is T4, Angiopoietin-1 receptor. As to the kind of experiment: Inhibition of Tyrosine protein kinase receptor TIE-2 (No effect).
Test [8] addresses T5, Receptor tyrosine-protein kinase erbB-2. The test can be described thus: Inhibition of ERBB2 receptor kinase.
Test [9] has as its target T3, Vascular endothelial growth factor receptor 2. As to the kind of experiment: Inhibition of Vascular endothelial growth factor receptor 2.
Test [10] has as its target T2, Insulin-like growth factor 1 receptor. As to the kind of experiment: Inhibition of Insulin-like growth factor I receptor.
Test [11] deals with T1, Epidermal growth factor receptor. The test can be described thus: Inhibition of Epidermal growth factor receptor.
For test [12], the target named is T6, Vascular endothelial growth factor receptor 3. The test can be described thus: Inhibition of Vascular endothelial growth factor receptor 3.

T1 sequence (P00533 whole entry): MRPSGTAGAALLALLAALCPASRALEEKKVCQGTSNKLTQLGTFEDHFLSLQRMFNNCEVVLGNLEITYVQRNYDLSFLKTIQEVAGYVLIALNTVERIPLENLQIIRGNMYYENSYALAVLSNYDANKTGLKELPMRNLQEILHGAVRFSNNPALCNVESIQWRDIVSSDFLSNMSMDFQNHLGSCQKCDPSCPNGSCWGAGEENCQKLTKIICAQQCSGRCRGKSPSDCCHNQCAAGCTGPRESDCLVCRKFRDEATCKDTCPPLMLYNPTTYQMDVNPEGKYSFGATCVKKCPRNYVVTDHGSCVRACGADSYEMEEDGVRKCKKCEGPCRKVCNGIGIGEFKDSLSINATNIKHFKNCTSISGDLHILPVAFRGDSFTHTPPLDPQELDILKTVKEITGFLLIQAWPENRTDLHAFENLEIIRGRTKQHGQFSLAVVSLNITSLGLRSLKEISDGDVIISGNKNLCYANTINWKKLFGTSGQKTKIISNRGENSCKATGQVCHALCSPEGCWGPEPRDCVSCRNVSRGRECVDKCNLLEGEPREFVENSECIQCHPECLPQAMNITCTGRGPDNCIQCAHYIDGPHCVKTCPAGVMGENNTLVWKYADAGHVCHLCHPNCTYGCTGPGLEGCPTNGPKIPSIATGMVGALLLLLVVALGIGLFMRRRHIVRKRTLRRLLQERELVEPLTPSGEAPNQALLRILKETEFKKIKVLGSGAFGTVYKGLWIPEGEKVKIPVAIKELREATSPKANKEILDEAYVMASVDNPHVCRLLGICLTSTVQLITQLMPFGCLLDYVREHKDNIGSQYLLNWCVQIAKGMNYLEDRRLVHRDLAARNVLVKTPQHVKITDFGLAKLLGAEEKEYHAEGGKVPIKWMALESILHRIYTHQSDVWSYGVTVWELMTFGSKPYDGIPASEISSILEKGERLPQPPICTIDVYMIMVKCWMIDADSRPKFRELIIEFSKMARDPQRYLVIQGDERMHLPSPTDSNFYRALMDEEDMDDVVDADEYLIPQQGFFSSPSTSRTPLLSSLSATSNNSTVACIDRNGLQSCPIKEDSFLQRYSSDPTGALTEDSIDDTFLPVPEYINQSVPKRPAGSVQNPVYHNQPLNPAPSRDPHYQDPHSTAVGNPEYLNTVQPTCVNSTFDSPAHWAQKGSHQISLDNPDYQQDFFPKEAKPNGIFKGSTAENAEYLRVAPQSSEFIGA
T3 sequence (P35968 whole entry): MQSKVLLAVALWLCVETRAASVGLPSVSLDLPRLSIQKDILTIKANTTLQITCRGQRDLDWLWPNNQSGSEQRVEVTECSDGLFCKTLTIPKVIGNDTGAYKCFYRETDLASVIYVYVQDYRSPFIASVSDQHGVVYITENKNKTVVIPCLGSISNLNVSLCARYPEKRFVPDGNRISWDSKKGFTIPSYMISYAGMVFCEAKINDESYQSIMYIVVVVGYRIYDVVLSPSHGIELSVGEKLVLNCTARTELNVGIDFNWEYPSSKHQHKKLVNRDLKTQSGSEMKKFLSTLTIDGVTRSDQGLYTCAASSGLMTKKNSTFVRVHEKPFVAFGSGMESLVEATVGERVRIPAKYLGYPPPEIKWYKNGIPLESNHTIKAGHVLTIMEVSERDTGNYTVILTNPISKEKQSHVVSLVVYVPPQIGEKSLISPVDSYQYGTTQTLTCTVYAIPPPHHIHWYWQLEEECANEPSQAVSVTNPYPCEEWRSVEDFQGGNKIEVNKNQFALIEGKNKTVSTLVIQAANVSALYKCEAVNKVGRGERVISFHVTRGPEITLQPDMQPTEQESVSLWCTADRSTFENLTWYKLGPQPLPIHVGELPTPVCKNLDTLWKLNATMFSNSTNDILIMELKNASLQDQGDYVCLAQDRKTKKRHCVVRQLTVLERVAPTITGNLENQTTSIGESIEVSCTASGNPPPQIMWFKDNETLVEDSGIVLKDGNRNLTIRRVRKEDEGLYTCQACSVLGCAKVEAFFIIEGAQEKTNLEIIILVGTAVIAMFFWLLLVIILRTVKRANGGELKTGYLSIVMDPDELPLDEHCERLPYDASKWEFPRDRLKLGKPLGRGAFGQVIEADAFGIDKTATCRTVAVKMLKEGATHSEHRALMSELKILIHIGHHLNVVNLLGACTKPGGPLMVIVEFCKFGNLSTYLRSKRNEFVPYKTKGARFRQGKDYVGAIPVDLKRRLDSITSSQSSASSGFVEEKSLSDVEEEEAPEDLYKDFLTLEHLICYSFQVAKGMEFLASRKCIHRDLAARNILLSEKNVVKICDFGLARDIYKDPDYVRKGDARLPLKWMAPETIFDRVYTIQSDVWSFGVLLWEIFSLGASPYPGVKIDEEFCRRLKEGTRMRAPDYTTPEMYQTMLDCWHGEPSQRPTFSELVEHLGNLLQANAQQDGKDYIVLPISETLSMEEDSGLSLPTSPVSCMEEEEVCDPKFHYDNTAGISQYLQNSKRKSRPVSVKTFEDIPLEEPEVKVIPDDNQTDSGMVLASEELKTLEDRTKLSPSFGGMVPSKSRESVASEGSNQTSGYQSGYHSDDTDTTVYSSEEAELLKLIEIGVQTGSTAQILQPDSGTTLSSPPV
T4 sequence (Q02763 whole entry): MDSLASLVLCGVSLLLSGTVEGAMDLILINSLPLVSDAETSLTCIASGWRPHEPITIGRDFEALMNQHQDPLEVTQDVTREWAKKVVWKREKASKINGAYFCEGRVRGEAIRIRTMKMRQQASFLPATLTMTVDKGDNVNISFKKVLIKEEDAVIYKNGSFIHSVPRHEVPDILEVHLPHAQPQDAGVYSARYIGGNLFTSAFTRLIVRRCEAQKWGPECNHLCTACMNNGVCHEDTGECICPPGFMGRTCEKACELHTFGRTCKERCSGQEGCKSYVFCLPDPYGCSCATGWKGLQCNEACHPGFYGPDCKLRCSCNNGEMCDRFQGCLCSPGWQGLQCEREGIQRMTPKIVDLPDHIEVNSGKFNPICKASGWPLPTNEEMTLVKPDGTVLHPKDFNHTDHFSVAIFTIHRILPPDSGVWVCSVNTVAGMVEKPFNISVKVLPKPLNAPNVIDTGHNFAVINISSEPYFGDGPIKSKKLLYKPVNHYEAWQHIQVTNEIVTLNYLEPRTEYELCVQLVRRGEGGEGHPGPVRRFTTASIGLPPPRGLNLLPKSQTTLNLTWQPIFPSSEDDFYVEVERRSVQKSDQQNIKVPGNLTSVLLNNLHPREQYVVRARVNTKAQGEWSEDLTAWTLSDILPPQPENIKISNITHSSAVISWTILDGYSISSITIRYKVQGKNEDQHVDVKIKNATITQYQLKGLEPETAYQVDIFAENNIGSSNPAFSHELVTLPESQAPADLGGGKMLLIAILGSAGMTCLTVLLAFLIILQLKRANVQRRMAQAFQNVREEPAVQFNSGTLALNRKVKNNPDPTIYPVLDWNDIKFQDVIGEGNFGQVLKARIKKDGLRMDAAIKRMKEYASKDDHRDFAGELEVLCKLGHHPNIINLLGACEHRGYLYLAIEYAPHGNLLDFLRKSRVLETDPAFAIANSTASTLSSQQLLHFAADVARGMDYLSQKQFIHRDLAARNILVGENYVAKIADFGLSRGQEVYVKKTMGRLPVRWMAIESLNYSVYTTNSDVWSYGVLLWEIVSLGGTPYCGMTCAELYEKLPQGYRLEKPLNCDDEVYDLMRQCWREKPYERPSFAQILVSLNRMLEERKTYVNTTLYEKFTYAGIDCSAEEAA
T2 sequence (P08069 31-736 limits assumed): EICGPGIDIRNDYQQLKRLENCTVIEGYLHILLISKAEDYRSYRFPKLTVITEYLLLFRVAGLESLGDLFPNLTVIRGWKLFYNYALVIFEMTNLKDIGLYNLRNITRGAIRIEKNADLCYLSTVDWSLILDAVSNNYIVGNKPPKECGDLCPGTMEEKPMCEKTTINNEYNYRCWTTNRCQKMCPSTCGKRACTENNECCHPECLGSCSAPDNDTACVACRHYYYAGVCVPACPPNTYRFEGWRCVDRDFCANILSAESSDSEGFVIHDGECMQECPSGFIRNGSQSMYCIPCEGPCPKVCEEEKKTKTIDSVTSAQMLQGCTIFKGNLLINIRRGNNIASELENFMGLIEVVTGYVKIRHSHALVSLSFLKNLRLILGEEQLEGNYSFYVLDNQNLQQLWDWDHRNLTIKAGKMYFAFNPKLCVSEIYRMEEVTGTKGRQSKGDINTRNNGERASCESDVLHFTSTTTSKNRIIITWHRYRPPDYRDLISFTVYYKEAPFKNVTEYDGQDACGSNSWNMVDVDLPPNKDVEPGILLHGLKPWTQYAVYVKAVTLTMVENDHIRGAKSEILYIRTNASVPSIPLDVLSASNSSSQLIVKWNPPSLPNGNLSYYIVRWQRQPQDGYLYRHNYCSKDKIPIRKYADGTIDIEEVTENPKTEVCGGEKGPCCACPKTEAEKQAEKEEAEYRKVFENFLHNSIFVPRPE
T2 sequence (P08069 741-1367 limits assumed): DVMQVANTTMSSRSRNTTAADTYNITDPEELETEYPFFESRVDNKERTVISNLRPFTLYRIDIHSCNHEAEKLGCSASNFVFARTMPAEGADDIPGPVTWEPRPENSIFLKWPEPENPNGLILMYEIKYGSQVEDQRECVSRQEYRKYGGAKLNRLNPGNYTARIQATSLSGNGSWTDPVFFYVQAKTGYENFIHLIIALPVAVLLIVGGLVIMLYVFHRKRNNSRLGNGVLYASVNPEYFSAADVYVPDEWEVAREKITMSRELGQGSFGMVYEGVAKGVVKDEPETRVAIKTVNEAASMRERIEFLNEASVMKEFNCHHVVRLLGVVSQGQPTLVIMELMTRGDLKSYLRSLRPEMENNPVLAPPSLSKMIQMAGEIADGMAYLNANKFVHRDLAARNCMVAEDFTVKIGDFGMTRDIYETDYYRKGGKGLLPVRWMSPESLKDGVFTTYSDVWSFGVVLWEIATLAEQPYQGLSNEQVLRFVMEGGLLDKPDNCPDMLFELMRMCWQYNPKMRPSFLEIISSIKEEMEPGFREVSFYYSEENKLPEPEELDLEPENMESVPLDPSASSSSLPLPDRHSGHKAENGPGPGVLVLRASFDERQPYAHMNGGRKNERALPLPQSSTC

As for `COC1=CC(=O)C=C(Cc2ccccc2)C1=O`, the NI entry in test [1], in test [2], in test [3], in test [5] and in test [6] was “inactive” throughout. In addition, half-maximal inhibition on Angiopoietin-1 receptor [4] (IC50) required 18 µM.

For the compound `COC1=CC(=O)C=CC1=O`, the NI result (in test [1]; on Angiopoietin-1 receptor [7]; in test [2]; in test [3]; in [6]) was “inactive” throughout. Moreover, it took 29 µM to reach half-maximal inhibition in test [8] (IC50).

In the case of `CC1=CCC[C@H]2[C@](C)(CC3=C(O)C(O)=C/C(=N\[C@@H](CO)C(=O)O)C3=O)[C@H](C)CC[C@]12C`, the NI result (in test [1]; at Angiopoietin-1 receptor [7]; in test [2]; in test [5]; in test [6]) was “inactive” in each case. Besides, in test [9], the IC50 was found to be 20 µM.

Take `COC1=CC(=O)C(N[C@@H](CO)C(=O)O)=CC1=O`: the NI entry (in test [1]; at Angiopoietin-1 receptor [7]; in test [6]) was “inactive” in each case. For the same compound, the 50% inhibitory concentration (IC50) in test [10] is more than 50 µM; in test [9], 8 µM; in test [8] it was more than 100 µM.

Consider `CC(O)C(/N=C1C=C(O)/C(=N\C(C(=O)O)C(C)O)C=C/1O)C(=O)O` (configuration not stated), for which the concentration for half-maximal inhibition (IC50) is 44 µM in test [11], 3 µM in [12], 6 µM in test [10] and 5 µM against Angiopoietin-1 receptor [4]. In addition, the NI result in test [3] and in test [5] was “inactive” throughout.

For `COC1=CC(=O)C=C(/C=C2\CCCC3CCCCC23)C1=O` (configuration not stated), the figures for the half-inhibitory concentration (IC50) (in [11]; in test [8]; against Angiopoietin-1 receptor [4]) were more than 100 µM, more than 100 µM and 14 µM, respectively. Also, the NI entry in test [2], in test [3] and in [6] was “inactive” each time.

Turning to `CC(O)C(/N=C1\C(O)=CC(=O)C(O)=C1CC1CCCC2CCCCC21)C(=O)O` (configuration not stated), the IC50 was more than 100 µM in test [11], 0.5 µM in test [10], more than 50 µM in [9] and 9 µM against Angiopoietin-1 receptor [4]. Also, the NI result in test [5] and in test [6] was “inactive” each time.

One may read the IC50 as the concentration that gives 50% inhibition.
